In general, half-life refers to how long it takes for the measured level to halve. Read a high half-life as slow decline.

The source of these data is patent publication US20230192683A1, “FUSED RING COMPOUNDS, PREPARATION METHOD THEREFOR, PHARMACEUTICAL COMPOSITIONS AND USE THEREOF” (priority 2020, published 2023).

A short description of data set [1]: metabolic stability in male rat liver microsomes. To be noted: rat liver microsomes, pH 7.4. Here is the method:
Metabolic degradation of a test compound was analyzed using pooled human liver microsomes and male rat liver microsomes, respectively, at 37° C.
After pre-incubation at 37° C. for 5 min, NADPH (5 mM, 60 µL) was added to initiate a reaction. A fixed volume of the reaction mixture (30 µL) was sampled into the solution at fixed time points (0, 5, 15, 30, 60 min) to quench the reaction. After centrifugation (4000 rpm, 15 min), the supernatant (100 µL) was mixed with distilled water (100 µL) and then subjected to LC-MS/MS analysis to test the amount of the compound. A half-life was calculated using a first-order reaction kinetic equation (Ct = C0 × e^-ket, T½ = Ln2/ke).
Background: Liver microsomes are a subcellular fraction often used to study metabolism.

Data set [2] in a line: pharmacokinetic evaluation in rats after oral and intravenous administration. In kind it is in vivo. The conditions noted are these: Sprague-Dawley, rat, plasma, male SD rats, oral 10.0 mg/kg, intravenous 1.0 mg/kg, route and unit inferred. The procedure:
Using rats as test animals, an LC/MS/MS method was used to determine the drug concentrations in plasma at different times after oral and intravenous administration of Compound 1a and Compound 14 in the rats. The pharmacokinetic behavior of the compounds of the present invention in rats was studied, and pharmacokinetic characteristics thereof were evaluated.
For each compound, 6 healthy adult SD (Sprague-Dawley) rats, male, were divided into oral and intravenous administration groups, 3 rats in each group, purchased from Shanghai SIPPR/BK Laboratory Animal Co., Ltd., animal production license number: SCXK (Shanghai) 2008-0016.
A specific amount of the drug was weighed and dissolved in 5% dimethylacetamide (DMA) + 5% polyethylene glycol-15 hydroxystearate (solutol) + 90% saline solution to prepare a 0.2 mg/mL solution.
The SD rats were fasted overnight and were administered orally and intravenously. The oral dose was 10.0 mg/kg, and the intravenous dose was 1.0 mg/kg.
Compound 1a and Compound 14 were administered orally and intravenously to the rats. At 0.083, 0.25, 0.5, 1, 2, 4, 8, and 24 hours after administration, 0.2 mL of blood was collected from the submandibular vein or other suitable blood vessels, placed in K2-EDTA tubes, and then stored on ice. Within one hour, the plasma was separated by centrifugation at 6,800 g for 6 minutes at 2-8° C., and stored at -80° C. for LC/MS/MS analysis. The rats were fed 4 hours after administration.

`CSc1cccc2c(C(C)(C)NC(=O)[C@H]3[C@@H]4CNC[C@@H]43)nn(C)c12` [Compound 14, (1R,5S,6R)-N-(2-(1-Methyl-7-(Methylthio)-1H-Indazol-3-yl)Prop-2-yl)-3-Azabicyclo[3.1.0]Hexane-6-Carboxamide] had a half-life at 1 µM in data set [1] greater than 3.11 h. This compound gave a half-life in data set [2] of 2.58 ± 0.5 h. In addition, in data set [2] (read-out: Apparent volume of distribution), the Vd was 7.09 ± 1.08 L/kg. Also, the clearance in data set [2] (read-out: Clearance rate) amounted to 48.7 ± 5.01 mL/min/kg.
